Results on six compounds are retold here after US7838256B2, “Assay and kit for drug efflux transporter activity” (Board of Regents of the University of Nebraska, priority 2007, dated 2010).

Data set [1] concerns MDR proteins. The data set is described as follows: Intracellular accumulation of calcein in MDCK-MDR1 cells in the presence of therapeutic agents and trypan blue. Particulars: for Area Under the Curve ± SEM (intracellular calcein accumulation): monitored for 300 minutes; for interaction with MDR proteins (area under the curve of calcein vs control): summary statement.
Procedure: Intracellular accumulation was monitored for 300 minutes in a 96-well format and the area under curve for each treatment was determined. The larger the area under the curve, the greater the intracellular accumulation of calcein and, by extension, the greater the influence of the therapeutic agent on MDR protein activity.
Data set [2] has as its system MDR proteins. The experiment in a line: Intracellular accumulation of fluorescent drug efflux probes in Caco2 cells with trypan blue. Particulars: calcein-AM 1 μM, BCECF-AM 1 μM, rhodamine 123 3.2 μM, 0.04% or 0.1% trypan blue. Type of data set: cell-based, human. The procedure: (§1) FIGS. 1A-1C show intracellular accumulation of calcein-AM (1 μM) in Madin-Darby canine kidney cells transfected with human MDR1 gene (MDCK-MDR1; FIG. 1A); human, […], colon adenocarcinoma cells (Caco2; FIG. 1B); and bovine brain microvessel endothelial cells (BBMEC, FIG. 1C) exposed to MDR1 inhibitor GF120918, MRP inhibitor indomethacin, or GF120918 in combination with indomethacin. Trypan blue (0.04%) was used to quench extracellular fluorescence.
(§2) FIGS. 2A-2C show intracellular accumulation of BCECF-AM (1 μM) in MDCK-MDR1 (FIG. 2A), Caco2 (FIG. 2B), and BBMEC (FIG. 2C) cells exposed to MDR1 inhibitor GF120918, MRP inhibitor indomethacin, or GF120918 in combination with indomethacin. Trypan blue (0.04%) was used to quench extracellular fluorescence.
(§3) FIGS. 3A-3C show intracellular accumulation of rhodamine 123 (3.2 μM) in MDCK-MDR1 (FIG. 3A), Caco2 (FIG. 3B), and BBMEC (FIG. 3C) cells exposed to MDR1 inhibitor GF120918, MRP inhibitor indomethacin, or GF120918 in combination with indomethacin. Trypan blue (0.1%) was used to quench extracellular fluorescence. […]

Data set [3] concerns the target T1, MDR1 (Homo sapiens, UniProt P08183).
Data set [4] has as its system MDR proteins. The experiment in a line: Intracellular accumulation of fluorescent drug efflux probes in MDCK-MDR1 cells with trypan blue. Type of data set: cell-based, human. The conditions noted are these: calcein-AM 1 μM, BCECF-AM 1 μM, rhodamine 123 3.2 μM, 0.04% or 0.1% trypan blue.
The subject of data set [5] is MDR proteins. The data set is described as follows: Intracellular accumulation of fluorescent drug efflux probes in BBMEC cells with trypan blue. Type of data set: cell-based, bovine. The conditions noted are these: calcein-AM 1 μM, BCECF-AM 1 μM, rhodamine 123 3.2 μM, 0.04% or 0.1% trypan blue. The procedure:
as §1, §2, §3

The target in data set [6] is T1, MDR1. The conditions noted are these: isolated membranes; Homolya et al. (1993); read-out: Kd as activator of MDR1; cited from earlier work.

As a reminder, the Kd is a measure of binding affinity in units of concentration.

T1 sequence (P08183 whole entry, species assumed): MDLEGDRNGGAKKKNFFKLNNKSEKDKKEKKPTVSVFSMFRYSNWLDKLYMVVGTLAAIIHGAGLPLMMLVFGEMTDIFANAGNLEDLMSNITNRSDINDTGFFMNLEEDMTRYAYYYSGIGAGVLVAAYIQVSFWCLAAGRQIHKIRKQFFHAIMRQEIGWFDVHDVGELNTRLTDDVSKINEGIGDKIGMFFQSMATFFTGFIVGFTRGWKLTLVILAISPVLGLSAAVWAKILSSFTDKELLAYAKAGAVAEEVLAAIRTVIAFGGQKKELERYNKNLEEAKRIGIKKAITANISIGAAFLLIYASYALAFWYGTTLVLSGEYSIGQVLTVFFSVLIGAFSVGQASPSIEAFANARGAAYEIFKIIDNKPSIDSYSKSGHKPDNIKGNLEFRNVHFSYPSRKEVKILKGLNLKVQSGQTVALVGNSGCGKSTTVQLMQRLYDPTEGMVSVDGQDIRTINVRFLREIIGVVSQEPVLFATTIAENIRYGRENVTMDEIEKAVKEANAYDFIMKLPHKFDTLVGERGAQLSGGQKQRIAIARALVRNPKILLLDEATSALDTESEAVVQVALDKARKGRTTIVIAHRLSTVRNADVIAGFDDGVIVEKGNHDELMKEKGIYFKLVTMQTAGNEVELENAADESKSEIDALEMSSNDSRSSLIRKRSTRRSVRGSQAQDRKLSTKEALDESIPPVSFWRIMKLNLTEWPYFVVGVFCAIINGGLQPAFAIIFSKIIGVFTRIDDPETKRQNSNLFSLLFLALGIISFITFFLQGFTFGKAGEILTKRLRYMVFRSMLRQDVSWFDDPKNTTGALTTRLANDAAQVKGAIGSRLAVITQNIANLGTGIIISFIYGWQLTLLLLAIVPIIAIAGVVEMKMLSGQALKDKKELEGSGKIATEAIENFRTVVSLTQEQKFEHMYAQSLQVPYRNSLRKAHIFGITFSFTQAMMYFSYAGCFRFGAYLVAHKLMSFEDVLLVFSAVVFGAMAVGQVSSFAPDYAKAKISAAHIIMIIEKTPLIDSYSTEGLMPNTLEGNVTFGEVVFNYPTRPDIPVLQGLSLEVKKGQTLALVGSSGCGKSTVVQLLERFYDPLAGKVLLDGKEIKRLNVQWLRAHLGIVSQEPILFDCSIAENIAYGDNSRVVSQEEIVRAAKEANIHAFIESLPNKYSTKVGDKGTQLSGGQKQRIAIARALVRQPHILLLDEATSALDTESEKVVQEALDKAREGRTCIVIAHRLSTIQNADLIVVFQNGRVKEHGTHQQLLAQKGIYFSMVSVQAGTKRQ

As for `O=c1[nH]cc(F)c(=O)[nH]1` [5-Fluorouracil, 5-fluorouracil], the “Ratio to Control (area under the curve)” value with MDR proteins [1] (1 μM) is listed as 1.20; with MDR proteins [1] (10 μM), 1.30; with MDR proteins [1] (100 μM), 0.87. The “Area Under the Curve ± SEM (intracellular calcein accumulation)” value was 3.07 ± 0.217 with MDR proteins [1] (1 μM), 3.33 ± 0.269 with MDR proteins [1] (10 μM) and 2.24 ± 0.322 in the data set with MDR proteins [1] (100 μM).
Regarding `COc1cc2c(cc1OC)CN(CCc1ccc(NC(=O)c3cccc4c(=O)c5cccc(OC)c5[nH]c34)cc1)CC2` [GF120918], the “intracellular accumulation of calcein-AM, BCECF and rhodamine 123” value with MDR proteins [2], with MDR proteins [4] and in the data set on MDR proteins [5] was “increase in the intracellular accumulation” in each case. The “initial fluorescence (uptake of rhodamine 123 at a single time point)” value at MDR1 [3] is reported as “greater initial fluorescence”. Also, the “Ratio to Control (area under the curve)” value in the data set on MDR proteins [1] (3.2 μM) is 8.81. In addition, in the data set with MDR proteins [1] (3.2 μM), the “Area Under the Curve ± SEM (intracellular calcein accumulation)” value was 22.57 ± 0.729.
For `Cc1nc2n(c(=O)c1CCN1CCC(c3noc4cc(F)ccc34)CC1)CCCC2` [Risperidone, risperidone], the “Ratio to Control (area under the curve)” value with MDR proteins [1] (1 μM) is on record as 1.53; in the data set with MDR proteins [1] (10 μM), 2.19; in the data set on MDR proteins [1] (100 μM) it was 6.64. Moreover, the results for the “Area Under the Curve ± SEM (intracellular calcein accumulation)” value in the data set with MDR proteins [1] (1 μM), in the data set on MDR proteins [1] (10 μM) and in the data set with MDR proteins [1] (100 μM) were 3.92 ± 0.412, 5.62 ± 0.259 and 17.02 ± 0.310, respectively. The “interaction with MDR proteins (area under the curve of calcein vs control)” value with MDR proteins [1] is given as “strong interaction with MDR proteins”.
In the case of `CC(C)CN(C[C@@H](O)[C@H](Cc1ccccc1)NC(=O)O[C@H]1CCOC1)S(=O)(=O)c1ccc(N)cc1` [amprenavir], the “Area Under the Curve ± SEM (intracellular calcein accumulation)” value is given as 4.06 ± 0.518 in the data set on MDR proteins [1] (1 μM), 5.44 ± 0.357 with MDR proteins [1] (10 μM) and 16.25 ± 0.798 in the data set on MDR proteins [1] (100 μM). For the same compound, the “interaction with MDR proteins (area under the curve of calcein vs control)” value in the data set on MDR proteins [1] was “strong interaction with MDR proteins”.
For the compound `COc1ccc2c(c1)c(CC(=O)O)c(C)n2C(=O)c1ccc(Cl)cc1` [indomethacin], the “intracellular accumulation of calcein-AM, BCECF and rhodamine 123” value in the data set with MDR proteins [2], in the data set with MDR proteins [4] and in the data set on MDR proteins [5] was “increase in the intracellular accumulation” each time.
As for “calcein-acetoxy-methylester [Calcein-AM]”, the Kd at MDR1 [6] is at most 1000 nM.
